Key:
Assay type in all cases: in vivo
Nilaparvata lugens [1] = assay: Activity against Nilaparvata lugens (spray on rice plants); details: 504 h, 400 ppm spray on rice plants, larvae in stages 2 and 3, evaluated after 21 days, read-out: percentage reduction in population (% activity)
Protocol: Rice plants are treated with a spray mixture prepared with an aqueous emulsion and comprising 400 ppm of the active ingredient. After the spray coating has dried on, the rice plants are populated with plant hopper larvae in stages 2 and 3. The test is evaluated after 21 days. The percentage reduction in population (% activity) is determined by comparing the number of surviving plant hoppers on the treated plants with the number of plant hoppers on the untreated plants. […] An activity of over 80% is shown, in particular, by compound Nos. 1.01, 2.01 to 2.03, 2.07, 2.08, 2.10 to 2.16, 2.20, 2.22, 2.23, 2.26, 3.01, 4.01 to 4.06, 4.20, 5.01 to 5.06, 5.08, 5.10 to 5.12, 5.15, 5.16 and 5.20 to 5.25.

Ctenocephalides felis = assay: Activity against Ctenocephalides felis; details: 504 h, 100 ppm in flea larvae nutrient medium, flea eggs, checked after 21 days
Protocol: 20 to 25 flea eggs are placed into a horizontally positioned 50 ml tissue culture flask into which 15 g of flea larvae nutrient medium comprising 100 ppm of the active ingredient to be tested have previously been introduced. The test flasks are incubated in an incubator at 26° to 27° C. and an atmospheric humidity of 60-70%. After 21 days, the flasks are checked for the presence of adult fleas, unhatched pupae and larvae.

Aphis craccivora = assay: Activity against Aphis craccivora; details: 400 ppm spray on pea seedlings, 20° C., evaluated after 3 and 6 days, read-out: percentage reduction in population (% activity)
Protocol: Pea seedlings are infected with Aphis craccivora, subsequently sprayed with a spray mixture comprising 400 ppm of the active ingredient, and incubated at 20° C. The test is evaluated after 3 and 6 days. The percentage reduction in population (% activity) is determined by comparing the number of dead aphids on the treated plants with those on the untreated plants.

Nilaparvata lugens [2] = assay: Systemic activity against Nilaparvata lugens; details: 144 h, pots with rice plants in 400 ppm aqueous emulsion solution, larvae in stages 2 and 3, evaluated 6 days later, read-out: percentage reduction in population (% activity)
Protocol: (§1) Pots containing rice plants are placed into an aqueous emulsion solution comprising 400 ppm of the active ingredient. The rice plants are subsequently populated with larvae in stages 2 and 3. The test is evaluated 6 days later. The percentage reduction in population (% activity) is determined by comparing the numbers of plant hoppers on the treated plants with those on the untreated plants.

Bemisia tabaci = assay: Activity against Bemisia tabaci; details: 336 h, 400 ppm spray on dwarf bean plants with nymphs, evaluated 14 days after application, read-out: activity (hatching percentages vs untreated control)
Protocol: Dwarf bean plants are placed into gauze cages and populated with adult Bemisia tabaci specimens (white fly). After oviposition has taken place, all adults are removed and, 10 days later, the plants with the nymphs located thereon are treated with a spray mixture of the active ingredients to be tested (concentration 400 ppm), which has been prepared with an aqueous emulsion. The test is evaluated for hatching percentages 14 days after the active ingredient has been applied by comparison with the untreated control batches. […] An activity of over 80% is shown, in particular, by compound Nos. 1.01, 2.01 to 2.08, 2.10 to 2.16, 2.22, 2.23, 3.01, 4.01, 4.02, 4.05, 4.06, 5.02, 5.03, 5.06 to 5.08, 5.10, 5.11, 5.20, 5.21 and 6.09.

[3] = system: Heliothis virescens caterpillars; assay: Activity against Heliothis virescens caterpillars; details: 144 h, 400 ppm spray on young soybean plants, first larval stage, evaluated after 6 days, read-out: percentage reduction in population or in feeding damage (% activity)
Protocol: (§2) Young soybean plants are sprayed with a spray mixture prepared with an aqueous emulsion and comprising 400 ppm of the active ingredient. After the spray coating has dried on, the soybean plants are populated with 10 Heliothis virescens in the first larval stage and placed into a plastic container. The test is evaluated after 6 days. The percentage reduction in population, or the percentage reduction in feeding damage (% activity), is determined by comparing the number of dead caterpillars and the feeding damage on the treated plants with those on the untreated plants.

[4] = system: Crocidolomia binotalis caterpillars; assay: Activity against Crocidolomia binotalis caterpillars; details: Brassica oleracea, 72 h; 400 ppm spray on young cabbage plants, third larval stage, evaluated after 3 days; read-out: percentage reduction in population or in feeding damage (% activity)
Protocol: as §2, with “cabbage” for “soybean”, “infested” for “populated”, “Crocidolomia binotalis” for “Heliothis virescens”, “third” for “first”, “3” for “6”

adult Anthonomus grandis = assay: Activity against adult Anthonomus grandis; details: 72 h, 400 ppm spray on young cotton plants, adults, evaluated after 3 days, read-out: percentage reduction in population or in feeding damage (% activity)
Protocol: as §2, with “cotton” for “soybean”, “adult Anthonomus grandis” for “Heliothis virescens in the first larval stage”, “3” for “6”, “beetles” for “caterpillars”

Nephotettix cincticeps = assay: Systemic activity against Nephotettix cincticeps; details: 144 h, pots with rice plants in 400 ppm aqueous emulsion solution, larvae in stages 2 and 3, evaluated after 6 days, read-out: percentage reduction in population (% activity)
Protocol: as §1, with “evaluated after” for “evaluated”, “6 days.” for “6 days later.”, “the number” for “the numbers”, “of leaf” for “of plant”

Heliothis virescens = assay: Ovicidal/larvicidal activity on Heliothis virescens; details: 192 h, 400 ppm spray on eggs deposited on cotton, evaluated after 8 days, read-out: % reduction in population (hatching percentage of eggs and survival rate of caterpillars)
Protocol: Heliothis eggs which have been deposited on cotton are sprayed with a spray mixture prepared with an aqueous emulsion and comprising 400 ppm of the active ingredient. After 8 days, the hatching percentage of the eggs and the survival rate of the caterpillars are evaluated by comparing them with untreated control batches (% reduction in population).

O=C(CC=C(F)F)OCCOc1ccc(Oc2ccccc2)cc1 [Compound 1.01, 2-(4-phenoxyphenoxy)ethyl-4,4-difluorobut-3-enoate]
> 80%: activity at 400 ppm (Nilaparvata lugens [1]) | pest or weed control at 100 ppm (Ctenocephalides felis) | activity at 400 ppm (Aphis craccivora) | activity at 400 ppm (Nilaparvata lugens [2]) | pest or weed control at 400 ppm (Bemisia tabaci) | activity at 400 ppm [3] | activity at 400 ppm [4] | activity at 400 ppm (adult Anthonomus grandis) | activity at 400 ppm (Nephotettix cincticeps) | pest or weed control at 400 ppm (Heliothis virescens)

O=C(CCCCCC=C(F)F)OCCOc1ccc(Oc2ccccc2)cc1 [Compound 3.01]
> 80%: activity at 400 ppm (Nilaparvata lugens [1]) | pest or weed control at 100 ppm (Ctenocephalides felis) | activity at 400 ppm (Aphis craccivora) | activity at 400 ppm (Nilaparvata lugens [2]) | pest or weed control at 400 ppm (Bemisia tabaci) | activity at 400 ppm [3] | activity at 400 ppm [4] | activity at 400 ppm (adult Anthonomus grandis) | activity at 400 ppm (Nephotettix cincticeps) | pest or weed control at 400 ppm (Heliothis virescens)
